The text below walks through data of patent US6881824B1, “Peptides suitable for use in antigen specific immunosuppressive therapy” (Akzo Nobel N.V., priority 1996, dated 2005).

The target of experiment [1] is T1, DR4 (DRB1*0401) molecules (Homo sapiens, UniProt P01903+P01911, A100K/A169T/F76Y/I96L/K127E/L162R/M171V/N62H/P40V/Q125Y/R42H/S133A/S149N/S66Y/V115G/V209L/W38E).
T1 construct: molecules were purified from the homozygous EBV-transformed human B lymphoblastoid cell lines Huly138IC2 and BM92 using the mAb; endogenous in cells
The experiment is described as follows: Peptide HLA-DR binding assay (semi-quantitative competition binding). The following applies: for IC50: Table IIIA, competition with biotinylated marker peptide HA 309 Y→F, pH5.0, 44 hr RT. As to the method:
DR4 (DRB1*0401) and DR4 (DRB1*0404) molecules were purified from the homozygous EBV-transformed human B lymphoblastoid cell lines Huly138IC2 and BM92 using the mAb t243, directed against a monomorphic determinant on the DR-complex (Lampson, L. A and R. Levy (1980), J. Immunol. 125:293 299).
The peptide binding studies were performed using a semi-quantitative competition binding assay (Joosten et al 1994, Int. Immunol. 6, 751). Briefly, purified HLA-DR molecules (30 nM DR4(DRB1*0401) or 15 nM DR4 (DRB1*0404) were incubated at pH5.0 with 50 nM biotinylated marker peptide (HA 309y→F) and a concentration range of competitor peptide in a final volume of 25 μl binding buffer (PBS containing 0.01% […], 0.05% NP-40, 5% DMSO, 1 mM AEBSF, 1 mM N-ethyl maleimide, 8 mM EDTA and 10 μm pepstatin A). After 44 hr of incubation at RT, HLA DR bound marker peptide was separated from free marker peptide using a 96 well vacuum dotblot apparatus (Hybri. dot, BRL) and a nitrocellulose membrane (Hybond ECL, Amersham, UK). The nitrocellulose filters were blocked with 0.5% DNA blocking reagent (Boehringer) in 0.1 M maleic acid, 150 mM NaCl, pH7.5.
After 0.5-1 hr, the filters were washed in PBS, 0.05% Tween 20 (Sigma) and incubated with Strepcavidin-HRPO (Southern Biotechnology) in a 1:10.000 dilution. Biotinylated peptides were detected by enhanced chemiluminescence using a Western Blot ECL kit (Amersham). Exposure of the preflashed films (Hyperfilm-ECL, Amersham) was for 10 min. The spots were analysed by scanning the films and using Image Quant/Excel software for analysis.
The affinity of a given peptide for binding DRB1*0401-encoded molecules was related to competition with the marker peptide. This relative binding affinity was defined as the peptide concentration at which the signal was reduced to 50% (IC50).

Experiment [2] concerns PBMC from RA patients carrying the DR4 (DRB1*0401) specificity. The experiment in a line: Peptide-induced proliferative responses of PBMC from RA patients. Format: cell-based, human. The following applies: 100 and 10 microgram/ml, 7 days, 3H-thymidine incorporation; for Peptide-induced proliferative response of PBMC, RA 286: RA patient 286, 0401, R; for Peptide-induced proliferative response of PBMC, RA 191: RA patient 191, 0401, R. As to the method: This study included 7 DR4(DRB1*0401)-positive patients diagnosed as suffering from RA according to the ARA criteria (Arnett et al., (1988), Arthritis Rheum. 31, 315). Peripheral blood samples were obtained with informed consent. There were five women and two men aged 46-79 years. Their duration of disease ranged from over 10 to over 30 years. Three out of 7 patients had at least 3 swollen joints. […] All patients were on medication: Four patients were treated with prednisone, three patients received anti-rheumatic agents and 4 patients were treated with NSAID's as well.
In order to identify T-cell epitopes within HC gp-39, 59 peptides of 16 AA in length, overlapping by 10 AA were tested for their capacity to induce a proliferative response in PBMC from RA patients and healthy controls carrying the DR4 (DRB1*0401) specificity (Table 1).
PBMC obtained from heparinized venous peripheral blood were isolated by standard centrifugation on a Ficoll-Paque gradient. Cells were cultured in four-fold at a concentration of 1,5×10^5 cells/well in medium supplemented with 10% heat-inactivated, autologous plasma, L-glutamine, 2-ME and antibiotics in flatbottomed microtiter plates. Cells were incubated in medium alone or in the presence of phytohaemagglutinin (PHA) (2:5 μg/ml) to assert cell viability, or in the presence of 10 or 100 μg/ml of the HC gp-39-derived peptides. In several cases, sets of 2 or 3 sequential peptides were tested due to limited PBMC numbers of individual donors. Cultures were incubated in a total volume of 210 μl for 7 days at […] in a humidified atmosphere of 5% CO2. Cultures were pulsed during the last 18 hours with 0.25 μCi ^3H-thymidine ([^3H]TdR). Cells were harvested on glassfiber filters and [^3H] TdR incorporation was measured by gas scintillation (Packard Matrix 96 βcounter). Only peptides inducing a proliferative response at both 10 and 100 μg/ml were considered to contain a T-cell epitope. Responses were defined positive if stimulation index values (SI, antigen-specific counts per 5 min (cp5 m)/background cp5 m) exceeded or equaled 2.
T-cell reactivity to HC gp-39-derived peptide as analyzed by measuring the PBMC proliferative response in DR4 (DRB1*0401)-positive RA patients and healthy donors. Proliferative responses were tested in autologous plasma. In Table IIIA and IIIB the results of 7 experiments are presented showing the responses of RA patients (Table IIIA) and the responses of healthy donors (Table IIIB) to 59 overlapping sequences derived from HC gp-39.

Experiment [3] concerns the target T2, DR4 (DRB1*0401) molecules purified from the homozygous EBV-transformed human B lymphoblastoid cell line … (human, UniProt P01903 26-254).
T2 construct: mature; That form is inferred from purification of the native complex
The experiment is described as follows: competition binding assay on purified DR4(DRB1*0401).

Ends that are not written are not given here.

As a reminder, the IC50 is the midpoint of a concentration-inhibition curve. A low value points to greater potency. Consider “DFQGSFCGQDLRFPLT [compound 57, DFQGSFCGQDLRFPLT]”, for which, in experiment [1], the “Relative affinity of binding to DR4 (DRB1*0401), in words” value (“Relative affinity of binding to DR4” for short) is reported as “high to intermediate relative affinity” and the half-inhibitory concentration (IC50) fell in the range of 1 to 10 µM. Consider “DIAKISQHLDFISIMT [compound 29, DIAKISQHLDFISIMT]”, for which, in experiment [1], the “Relative affinity of binding to DR4” value is on record as “high to intermediate relative affinity” and the IC50 is below 1 µM. In addition, the “Peptide-induced proliferative response of PBMC, RA 259” value in experiment [2] (RA patient 259, 0401, R) was “pos (positive responses to both 100 and 10 microgram/ml of peptide or sets of peptides (SI≧2 were regarded positive))”. For the molecule “DLAWLYPGRRDKQHFT [peptide 20, DLAWLYPGRRDKQHFT]”, in experiment [1], the “Relative affinity of binding to DR4” value is “poor relative affinity” and the IC50 was in the range of 100 to 1000 µM. Moreover, the “Peptide-induced proliferative response of PBMC, RA 286” value in experiment [2] was “pos (positive responses to both 100 and 10 microgram/ml of peptide or sets of peptides (SI≧2 were regarded positive))”.

As to “EICDFLRGATVHRTLG [compound 47, EICDFLRGATVHRTLG]”, in experiment [1], the “Relative affinity of binding to DR4” value is given as “high to intermediate relative affinity” and the IC50 was below 1 µM. Further, the “Peptide-induced proliferative response of PBMC, RA 191” value in experiment [2] is “pos (positive responses to both 100 and 10 microgram/ml of peptide or sets of peptides (SI≧2 were regarded positive))”. Consider “GTLAYYEICDFLRGAT [compound 46, GTLAYYEICDFLRGAT]”, for which, in experiment [1], the “Relative affinity of binding to DR4” value was “high to intermediate relative affinity” and the IC50 is below 1 µM. For “HGFDGLDLAWLYPGRR [compound 19, HGFDGLDLAWLYPGRR]”, in that order: “high to intermediate relative affinity” and 10 to 100 µM. For the molecule “NTQSRRTFIKSVPPFL [compound 16, NTQSRRTFIKSVPPFL]”, in experiment [1], the “Relative affinity of binding to DR4” value was “high to intermediate relative affinity” and the half-maximal inhibitory concentration (IC50) is below 1 µM. Further, the “Peptide-induced proliferative response of PBMC, RA 286” value in experiment [2] is “pos (positive responses to both 100 and 10 microgram/ml of peptide or sets of peptides (SI≧2 were regarded positive))”. Turning to “PASKLVMGIPTFGRSF [compound 39, PASKLVMGIPTFGRSF]”, in experiment [1], the “Relative affinity of binding to DR4” value is “high to intermediate relative affinity” and the 50% inhibitory concentration (IC50) was 1 to 10 µM.

“PPFLRTHGFDGLDLAW [compound 18, PPFLRTHGFDGLDLAW]”: in experiment [1], the “Relative affinity of binding to DR4” value is given as “high to intermediate relative affinity” and the IC50 was 10 to 100 µM. Moreover, in experiment [2] (RA patient 276, 0401, R), the “Peptide-induced proliferative response of PBMC, RA 276” value was “pos (positive responses to both 100 and 10 microgram/ml of peptide or sets of peptides (SI≧2 were regarded positive))”. “RGATVHRTLGQQVPYA [compound 48, RGATVHRTLGQQVPYA]”: in experiment [1], the “Relative affinity of binding to DR4” value is “high to intermediate relative affinity” and the IC50 lay in the range of 10 to 100 µM. On the same counts, the results for “TFIKSVPPFLRTHGFD [compound 17, TFIKSVPPFLRTHGFD]” are “high to intermediate relative affinity” and 1 to 10 µM. On the same counts, the results for “TIDSSYDIAKISQHLD [compound 28, TIDSSYDIAKISQHLD]” are “high to intermediate relative affinity” and below 1 µM. For “VKSKVQYLKDRQLAGA [compound 53, VKSKVQYLKDRQLAGA]”, in that order: “high to intermediate relative affinity” and below 1 µM. Turning to “WALDLDDFQGSFCGQD [compound 56, WALDLDDFQGSFCGQD]”, in experiment [1], the “Relative affinity of binding to DR4” value is reported as “high to intermediate relative affinity” and the IC50 is below 1 µM. For the same molecule, in experiment [2], the “Peptide-induced proliferative response of PBMC, RA 191” value was “pos (positive responses to both 100 and 10 microgram/ml of peptide or sets of peptides (SI≧2 were regarded positive))”; the “Peptide-induced proliferative response of PBMC, RA 286” value is “pos (positive responses to both 100 and 10 microgram/ml of peptide or sets of peptides (SI≧2 were regarded positive))”. As to “YREGDGSCFPDALDRF [peptide 3, YREGDGSCFPDALDRF]”, in experiment [1], the “Relative affinity of binding to DR4” value is reported as “high to intermediate relative affinity” and the IC50 is 10 to 100 µM. For HGFDGLDLAWLYPGRR [HC gp-39 peptide 19 (residues 130-145)], the binding result in experiment [3] is recorded as “binds”. Still for that read-out and setting: in the case of MLRLGAPASKLVMGIP [HC gp-39 peptide 38 (residues 244-259)] it was “binds”; in that of LAGAMVWALDLDDFQG [HC gp-39 peptide 55 (residues 346-361)], “binds”. Regarding TIDSSYDIAKISQHLD [HC gp-39 peptide 28 (residues 184-199)], the binding result in experiment [3] was “binds”. The same measure, in the same setting: the value for PPFLRTHGFDGLDLAW [HC gp-39 peptide 18 (residues 124-139)] was “binds”; that for DLAWLYPGRRDKQHFT [HC gp-39 peptide 20 (residues 136-151)] was “binds”. Still for that read-out and setting: the value for DIAKISQHLDFISIMT [HC gp-39 peptide 29 (residues 190-205)] was “binds”. For the molecule GRSFTLASSETGVGAP [HC gp-39 peptide 41 (residues 262-277)], the binding result in experiment [3] is reported as “binds”.

As for YTSWSQYREGDGSCFP [HC gp-39 peptide 2 (residues 28-43)], the binding result in experiment [3] is reported as “binds”. On the same count and under the same terms, in the case of NTQSRRTFIKSVPPFL [HC gp-39 peptide 16 (residues 112-127)] it was “binds”; in that of SPLFRGQEDASPDRFS [HC gp-39 peptide 34 (residues 220-235)], “binds”.

As for PNLKTLLSVGGWNFGS [HC gp-39 peptide 12 (residues 88-103)], in experiment [3], the binding result is “binds”.

Consider MGIPTFGRSFTLASSE [HC gp-39 peptide 40 (residues 256-271)], for which the binding result in experiment [3] is recorded as “binds”. Consider YREGDGSCFPDALDRF [HC gp-39 peptide 3 (residues 34-49)], for which the binding result in experiment [3] is “binds”.
